# According to ChEMBL document CHEMBL6087389, “Hydrazone-Functionalized trans-A2B-Corroles: Effective Synergy in Photodynamic Therapy of Lung Cancer” (J Med Chem, 2024):
# pIC50: −log10 of the molar value. Calls of active or inactive are those of the source. The rule behind the calls is not given here.
# Tests used:
# NCI-H1299 [1] = experiment: Induction of apoptosis in human NCI-H1299 cells assessed as appearance of necrosis at 100 to 250 nM preincubated for 24 hrs followed by irradiated with 7.5 to 10 mW/cm^-2 red light for 24 hr by May-Grunwald/Giemsa staining by light microscopic analysis; type: functional, cell-based; details: dose 100-250 nM, time 48.0 hrs
# A549 [2] = experiment: Induction of apoptosis in human A549 cells assessed as early apoptotic cells at 100 to 500 nM preincubated for 24 hrs followed by irradiated with 7.5 to 10 mW/cm^-2 red light for 24 hrs by Annexin V and propidium iodide staining based flow cytometry relative to control; type: functional; details: dose 100-500 nM, time 48 hrs
# NCI-H1299 [3] = experiment: Induction of apoptosis in human NCI-H1299 cells assessed as reduction in viability at 100 to 500 nM preincubated for 24 hrs followed by irradiated with 7.5 to 10 mW/cm^-2 red light for 24 hrs by Annexin V and propidium iodide staining based flow cytometry relative to control; type: functional; details: dose 100-500 nM, time 48 hrs
# A549 [4] = experiment: Dark toxicity against human A549 cells assessed as reduction in metabolic activity at <1 uM incubated for 4 hrs by MTT assay; type: cell-based; details: a549, 4 h
# [5] = Fluorescence property of the compound in THF assessed as fluorescence quantum yield by photoluminescence quantum yield spectrometer; type: physicochemical
# NCI-H1299 [6] = experiment: Induction of apoptosis in human NCI-H1299 cells assessed as early apoptotic cells at 500 nM preincubated for 24 hrs followed by irradiated with 7.5 to 10 mW/cm^-2 red light for 24 hrs by Annexin V and propidium iodide staining based flow cytometry relative to control; type: functional; details: time 48 hrs
# NCI-H1299 [7] = experiment: Dark toxicity against human NCI-H1299 cells assessed as reduction in metabolic activity at 10 uM incubated for 4 hrs by MTT assay; type: cell-based; set-up: scale not given: the % may be the effect or the level left; details: nci-h1299, 4 h
# NCI-H1299 [8] = experiment: Induction of apoptosis in human NCI-H1299 cells assessed as early apoptotic cells at 100 nM preincubated for 24 hrs followed by irradiated with 7.5 to 10 mW/cm^-2 red light for 24 hrs by Annexin V and propidium iodide staining based flow cytometry relative to control; type: functional; details: time 48 hrs
# A549 [9] = experiment: Induction of apoptosis in human A549 cells assessed as viable cells at 500 nM preincubated for 24 hrs followed by irradiated with 7.5 to 10 mW/cm^-2 red light for 24 hrs by Annexin V and propidium iodide staining based flow cytometry relative to control; type: functional; details: A549, light or radiation study, time 48 hrs, read-out: Activity
# A549 [10] = experiment: Dark toxicity against human A549 cells assessed as reduction in metabolic activity at 10 uM incubated for 4 hrs by MTT assay; type: cell-based; details: a549, 4 h
# A549 [11] = experiment: Induction of apoptosis in human A549 cells assessed as reduction in viable cells at 100 nM preincubated for 24 hrs followed by irradiated with 7.5 to 10 mW/cm^-2 red light for 24 hrs by Annexin V and propidium iodide staining based flow cytometry relative to control; type: functional; details: time 48 hrs
# [12] = Phototoxicity against human NCI-H1299 cells assessed as reduction in cell viability preincubated for 24 hrs followed by 7.5 to 10 mW/cm^-2 red light irradiation and measured after 24 hrs by MTT assay; type: functional, cell-based; details: NCI-H1299, light or radiation study
# NCI-H1299 [13] = experiment: Induction of apoptosis in human NCI-H1299 cells assessed as late apoptotic/necrotic cells at 500 nM preincubated for 24 hrs followed by irradiated with 7.5 to 10 mW/cm^-2 red light for 24 hrs by Annexin V and propidium iodide staining based flow cytometry relative to control; type: functional; details: time 48 hrs
# NCI-H1299 [14] = experiment: Dark toxicity against human NCI-H1299 cells assessed as reduction in metabolic activity at <1 uM incubated for 4 hrs by MTT assay; type: cell-based; details: nci-h1299, 4 h
# A549 [15] = experiment: Induction of apoptosis in human A549 cells assessed as late apoptotic/necrotic cells at 500 nM preincubated for 24 hrs followed by irradiated with 7.5 to 10 mW/cm^-2 red light for 24 hrs by Annexin V and propidium iodide staining based flow cytometry relative to control; type: functional; details: time 48 hrs
# [16] = Fluorescence property of the compound in DMSO assessed as fluorescence quantum yield by photoluminescence quantum yield spectrometer; type: physicochemical
# [17] = Induction of singlet oxygen generation in THF assessed as singlet oxygen quantum yield by comparative photoluminescence method; type: functional
# NCI-H1299 [18] = experiment: Induction of apoptosis in human NCI-H1299 cells assessed as late apoptotic/necrotic cells at 100 nM preincubated for 24 hrs followed by irradiated with 7.5 to 10 mW/cm^-2 red light for 24 hrs by Annexin V and propidium iodide staining based flow cytometry relative to control; type: functional; details: time 48 hrs
# [19] = Phototoxicity against human A549 cells assessed as reduction in cell viability preincubated for 24 hrs followed by 7.5 to 10 mW/cm^-2 red light irradiation and measured after 24 hrs by MTT assay; type: functional, cell-based; details: A549, light or radiation study
# A549 [20] = experiment: Induction of apoptosis in human A549 cells assessed as late apoptotic/necrotic cells at 100 to 500 nM preincubated for 24 hrs followed by irradiated with 7.5 to 10 mW/cm^-2 red light for 24 hrs by Annexin V and propidium iodide staining based flow cytometry relative to control; type: functional; details: dose 100-500 nM, time 48 hrs
smiles,measurement,setting,value
C/C(=N\NS(=O)(=O)c1ccc(C)cc1)c1c2nc(c(-c3ccccc3)c3ccc([nH]3)c3ccc([nH]3)c(-c3ccccc3)c3ccc1[nH]3)C=C2,Activity,NCI-H1299 [1],Active
same,Activity,A549 [2],16.9%
same,Activity,NCI-H1299 [3],>=75%
same,Activity,A549 [4],Non-toxic
same,Activity,[5],0.114
same,Activity,NCI-H1299 [6],19.8%
same,Activity,NCI-H1299 [7],73.8%
same,Activity,NCI-H1299 [8],12.7%
same,viability at 0.5 µM,A549 [9],2%
same,Activity,A549 [10],Non-toxic
same,Activity,A549 [11],48%
same,pIC50,[12],7.28
same,Activity,NCI-H1299 [13],75.5%
same,Activity,NCI-H1299 [14],Non-toxic
same,Activity,A549 [15],92.7%
same,Activity,[16],0.282
same,Activity,[17],0.26
same,Activity,NCI-H1299 [18],23.2%
same,pIC50,[19],7.00
same,Activity,A549 [20],24.6%
